2 molecules from EP0326329B1, “Quinazoline derivatives useful as insecticides” (Dow AgroSciences LLC, priority 1988, dated 1989) can be followed below.

What all share (format): in vivo
Series [1] deals with Puccinia recondita tritici (leaf rust). The experiment in a line: Greenhouse Test 1, foliar spray fungicide screen (LEAF RUST), host wheat. The note with it: disease control rating, 400 ppm (+++ at 100 ppm).
For series [2], the system named is Septoria tritici (leaf blotch). The experiment in a line: Greenhouse Test 1, foliar spray fungicide screen (LEAF BLOT), host wheat. The note with it: disease control rating, 400 ppm (+++ at 100 ppm).
In series [3] the test system is Botrytis cinerea (gray mold). The experiment in a line: Greenhouse Test 1, foliar spray fungicide screen (GRAY MOLD), host grape berries. The note with it: disease control rating, 400 ppm (+++ at 100 ppm).
Series [4] has as its system southern armyworm (Spodopetra eridania Cramer). The experiment in a line: Mite/insect screen, sprayed squash leaves (SAW). The note with it: Spodoptera eridania, percent mortality, read-out: SAW RESULTS %. In a few lines: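 Percent mortality and phytotoxicity are the read-outs, assessed after standard exposure periods. Test solutions, made in 50:50 acetone/alcohol with two sulfonate/nonionic emulsifier blends and diluted in water, are sprayed to runoff on both leaf surfaces, which then dry for one hour.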

A further series has as its system Phytophthora infestans. The note with it: crop: potato.
The test system of a further series is Plasmopara viticola. The experiment in a line: Fungicide field tests. The note with it: crop: grape. The source says: (§1) Selected compounds were field tested on various crops against a variety of pathogens. […]
For series [5], the system named is Pseudoperonospora cubensis (downy mildew). The experiment in a line: Greenhouse Test 1, foliar spray fungicide screen (DOWN MDEW), host squash. The note with it: disease control rating, 400 ppm (+++ at 100 ppm).
Series [6] concerns Erysiphe graminis tritici (powdery mildew). The experiment in a line: Greenhouse Test 1, foliar spray fungicide screen (POWD MDEW), host wheat. The note with it: disease control rating, 400 ppm (+++ at 100 ppm).
The test system of series [7] is Venturia inaequalis (apple scab). The experiment in a line: Greenhouse Test 1, foliar spray fungicide screen (APPL SCAB), host apple seedling. The note with it: disease control rating, 400 ppm (+++ at 100 ppm).
The test system of series [8] is Cercospora beticola (leaf spot). The experiment in a line: Greenhouse Test 1, foliar spray fungicide screen (LEAF SPOT), host sugar beet. The note with it: disease control rating, 400 ppm (+++ at 100 ppm).
The test system of series [9] is Southern corn rootworm (Diabrotica undecimpuctata howardi Barber). The experiment in a line: Mite/insect screen, soil treatment (CRW). The note with it: percent mortality, soil treatment. In a few lines: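 Compounds dissolved in acetone/alcohol (50:50) with Toximul R/S emulsifiers, diluted with water. Soil (15 g, with presoaked corn seed) treated with 1 mL test solution, dried 6–12 h, then five 2–3 instar larvae added; held at 23°C. Percent mortality and phytotoxicity scored after standard exposure periods.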

The subject of series [10] is Pyricularia oryzae (rice blast). The note with it: disease control rating, foliar spray, host rice; 400 ppm (+++ at 100 ppm).
Series [11] relates to Twospotted spider mites (Tetranychus urticae Koch). The experiment in a line: Mite/insect screen, sprayed squash cotyledons (SM). The note with it: percent mortality. In a few lines: (§2)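 Steps: formulate compound in acetone/alcohol 50:50 carrying emulsifiers; dilute with water; spray leaves until runoff on upper and lower surfaces; air-dry one hour; for armyworm, excise two […] leaves into a dish of larvae; after exposure, score mortality and plant injury.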

Series [12] relates to melon aphids (Aphis gossypii Glover). The experiment in a line: Mite/insect screen, sprayed squash cotyledons (MA). The note with it: percent mortality. In a few lines: as §2
Another series relates to Pyrenophora teres. The experiment in a line: Fungicide field tests. The note with it: crop: barley.
Text: as §1

A further series concerns Podosphaera leucotricha. The experiment in a line: Fungicide field tests. The note with it: crop: apple.
Text: as §1

The next series deals with Sphaerotheca fuliginea. The experiment in a line: Fungicide field tests. The note with it: crop: cucumber.
Text: as §1

A further series concerns Septoria nodorum. The experiment in a line: Fungicide field tests. The note with it: crop: wheat.
Text: as §1

Series [13] relates to Pseudocercosporella herpotrichoides. The experiment in a line: Fungicide field tests. The note with it: crop: wheat.
Text: as §1

A further series concerns Alternaria brassicae. The experiment in a line: Fungicide field tests. The note with it: crop: rape.
Text: as §1

The test system of series [14] is Erysiphe graminis tritici. The experiment in a line: Fungicide field tests. The note with it: crop: wheat.
Text: as §1

The test system of a further series is Uncinula necator. The experiment in a line: Fungicide field tests. The note with it: crop: grapes.
Text: as §1

Another series concerns Erysiphe graminis hordei. The experiment in a line: Fungicide field tests. The note with it: crop: barley.
Text: as §1

A further series has as its system Rhynchosporium secalis. The experiment in a line: Fungicide field tests. The note with it: crop: barley.
Text: as §1

The mark [15] stands for this setting: Diabrotica, CRW rate 12.00 ppm, read-out: CRW RESULTS %.
[16] abbreviates: Tetranychus urticae, spray rate 200 ppm, read-out: SM RESULTS %.
[17] abbreviates: Aphis gossypii, spray rate 200 ppm, read-out: MA RESULTS %.

Regarding `Clc1ccc(CCOc2ncnc3ccccc23)cc1` [Example 5, 4-[2-(4-chlorophenyl)ethoxy]quinazoline], the “LEAF RUST” value in series [1] was “+++ (+++ = 90-100% control at 100 ppm)”. In series [2], the “LEAF BLOT” value is reported as “++ (++ = 90-100% control at 400 ppm)”. In addition, the “GRAY MOLD” value in [3] is “- (- = 0-19% control at 400 ppm)”. The mortality at 200 ppm in series [4] (spray rate 200 ppm) was determined as 20%; in series [11] (setting [16]), 100%; in series [12] (setting [17]) it was 100%. Moreover, the mortality at 400 ppm in [4] (spray rate 400 ppm) worked out at 0%; in series [11] (Tetranychus urticae, spray rate 400 ppm, read-out: SM RESULTS %) it was 50%; in [12] (Aphis gossypii, spray rate 400 ppm, read-out: MA RESULTS %), 100%. The entries for the “pathogen against which compound demonstrated activity in field tests” value (from here on “pathogen”) in the series on Phytophthora infestans and with Plasmopara viticola were “Phytophthora infestans” and “Plasmopara viticola”, respectively. Further, the “DOWN MDEW” value in series [5] is reported as “+ (+ = 20-89% control at 400 ppm)”. For the same molecule, the “POWD MDEW” value in series [6] is recorded as “+++ (+++ = 90-100% control at 100 ppm)”. For the same molecule, the “APPL SCAB” value in series [7] is recorded as “+++ (+++ = 90-100% control at 100 ppm)”. Also, the “LEAF SPOT” value in series [8] was “+++ (+++ = 90-100% control at 100 ppm)”. In addition, the mortality at 12 ppm in series [9] (setting [15]) was found to be 0%. Further, the mortality at 24 ppm in series [9] (Diabrotica, CRW rate 24.00 ppm, read-out: CRW RESULTS %) was 0%. The “RICE BLAST” value in [10] is reported as “+++ (+++ = 90-100% control at 100 ppm)”.
Regarding `c1ccc2cc(CCNc3ncnc4ccccc34)ccc2c1` [Example 53, N-[2-(2-naphthyl)ethyl]-4-quinazolinamine], in series [1], the “LEAF RUST” value is reported as “+++ (+++ = 90-100% control at 100 ppm)”. In addition, the “LEAF BLOT” value in series [2] is reported as “+++ (+++ = 90-100% control at 100 ppm)”. Moreover, in series [3], the “GRAY MOLD” value was “- (- = 0-19% control at 400 ppm)”. Also, the “pathogen” value is “Pyrenophora teres” in the series on Pyrenophora teres; “Podosphaera leucotricha” with Podosphaera leucotricha; “Plasmopara viticola” in the series on Plasmopara viticola; “Sphaerotheca fuliginea” in the series with Sphaerotheca fuliginea; “Septoria nodorum” with Septoria nodorum; “Pseudocercosporella herpotrichoides” in series [13]. In addition, the “pathogen” value is given as “Alternaria brassicae” in the series with Alternaria brassicae; “Erysiphe graminis tritici” in series [14]; “Uncinula necator” with Uncinula necator; “Erysiphe graminis hordei” in the series on Erysiphe graminis hordei; “Rhynchosporium secalis” with Rhynchosporium secalis. Also, in [5], the “DOWN MDEW” value is reported as “+++ (+++ = 90-100% control at 100 ppm)”. The “POWD MDEW” value in series [6] is “+++ (+++ = 90-100% control at 100 ppm)”. Moreover, in [7], the “APPL SCAB” value was “+ (+ = 20-89% control at 400 ppm)”. Also, in series [8], the “LEAF SPOT” value was “- (- = 0-19% control at 400 ppm)”. Moreover, the mortality at 12 ppm in [9] (setting [15]) is 0%. Also, the “CRW RESULTS %” value in series [9] (CRW rate 12.00 ppm) came to 0%. Moreover, in [10], the “RICE BLAST” value was “+++ (+++ = 90-100% control at 100 ppm)”. Besides, the mortality at 200 ppm in series [11] (setting [16]) and in series [12] (setting [17]) was 0% throughout. The “SM RESULTS %” value in series [11] (spray rate 200 ppm) came to 0%. The “MA RESULTS %” value in series [12] (spray rate 200 ppm) is listed as 0%.
